Experimental findings from US20190225650A1, “PEPTIDOMIMETIC MACROCYCLES AND USE THEREOF IN REGULATING HIF1ALPHA” (AILERON THERAPEUTICS, INC., priority 2013, published 2019) are described below.

Assay [1] deals with T1, flag-tagged HIF1α (AA 786-826) / His6-tagged p300 (AA 323-423) complex (Homo sapiens, UniProt Q09472).
T1 construct: His6-tagged p300 (AA 323-423); made in house; host or cells: E. coli (pETDuet vector)
Nature of the assay: HIF1α p300 displacement assay (TR FRET, +CHAPS). In kind it is binding. The settings on record: read-out: IC50 (nM) (HIF1α_p300 Displacement + CHAPS). The procedure: The ability of peptides to displace HIF1α c-terminal trans-activation domain from p300-CH was measured by a TR FRET assay. A complex of flag-tagged HIF1α (AA 786-826) and His6-tagged p300 (AA 323-423) was co-expressed using pETDuet vector (EMDMillipore, Bellrica Mass.) and purified from E. coli in the presence of 0.1 mM ZnSO4. The complex was diluted to 300 nM final in complete assay media and competitor peptides were added. The complete assay media contained 150 mM NaCl (Sigma +S5150 or equivalent), 20 mM HEPES pH 7.4 (Boston Bioproducts, Ashland, Mass.; #BB-2076), 7.5 mM CHAPS (Thermo #28300 or equivalent), and 1 mM DTT. Protein and peptide were incubated at room temperature for 1 hour before the addition of anti-Flag-K and anti-6×HIS-D2 (CisBio, Bedford Mass.) HTRF reconstitution buffer (50 mM Phosphate pH 7, 0.8 Potassium Flouride, BSA 0.2%)^1 to a final concentration of 0.5 μM and 4 nM respectively. The reaction continued for an additional two hours at room temperature. The reaction was read on a TECAN F500 plate reader with settings recommended by CisBio. The ratio of donor to acceptor fluorescence was calculated. The resulting data was analyzed with Graphpad Prism 5.0. IC50 values were calculated for both proteins using the One Site Fit-LogIC50 equation and presented in the column “IC50 (nM) (HIF1α_p300 Displacement+CHAPS)” of Table 6. ^1 Cisbio USA, Bedford, Mass.; 61HISDLB (lot 007A), 61FG2KLB (024A), HTRF Buffer (62RB3RDF)

Another assay relates to HRE-bla ME-180 cells. The assay can be described thus: Reporter gene assay (HRE-bla ME-180 HIF reporter, GeneBLAzer). In kind it is cell-based, human. The settings on record: for EC50: 24 hour normoxia. A digest of the protocol:
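A FRET β-lactamase readout of HIF transcription was used. After compound treatment in 0.3% DMSO/media under normoxic conditions, 20 μl of 6× LiveBLAzer-FRET B/G (CCF4-AM) substrate was added. Plates sat 3 hr at room temperature in the dark and were read at 409 Ex/460Em and 409Ex/530Em on a Synergy 2. Inhibition was compared against DMSO vehicle controls, with chetomin as positive control.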

Bridge positions count the residues as written; N and C are the ends. Square brackets hold non-standard residues; d marks the D form. Peptide text beside a SMILES is read from it. R8 = C=CCCCCCC[C@@](C)(N)C(=O)O; S5 = C=CCCC[C@](C)(N)C(=O)O; Nle = CCCC[C@H](N)C(=O)O; Dap = NC[C@H](N)C(=O)O

For the molecule `CCCC[C@H](NC(=O)[C@H](CCC(=O)O)NC(=O)[C@@H](NC(=O)[C@]1(C)CCCC=CCCC[C@](C)(NC(=O)[C@@H](NC(=O)[C@H](CCC(=O)O)NC(=O)[C@H](CCC(=O)O)NC(=O)[C@H](CC(=O)O)NC(=O)[C@@H](NC(=O)[C@H](CC(N)=O)NC(=O)[C@@H](NC(=O)[C@H](CCC(N)=O)NC(=O)[C@]2(C)CCCC=CCCC[C@](C)(NC(=O)[C@H](CC(C)C)NC(=O)[C@H](CCC(=O)O)NC(=O)[C@H](CCC(=O)O)NC(=O)CNC(=O)[C@H](CCC(N)=O)NC(=O)[C@H](CC(C)C)NC(=O)[C@H](CC(C)C)NC(C)=O)C(=O)N[C@@H](CCCNC(=N)N)C(=O)N[C@@H](C)C(=O)N[C@@H](CC(C)C)C(=O)N2)C(C)C)[C@@H](C)CC)C(C)C)C(=O)N[C@@H](CCCC)C(=O)N[C@@H](CO)C(=O)N[C@@H](CC(C)C)C(=O)N1)[C@@H](C)CC)C(=O)NCC(N)=O` [SP-304] (Ac-LLQGEEL[S5]RAL[S5]QVNIDEEV[S5][Nle]SL[S5]IE[Nle]G-NH2; staple 8-12, 21-25), in assay [1], the IC50 is above 700 nM.

With `CC[C@H](C)[C@H](NC(=O)[C@H](Cc1ccccc1)NC(C)=O)C(=O)N[C@@H](CC(=O)O)C(=O)N[C@@H](CCC(=O)O)C(=O)N[C@@H](CCC(=O)O)C(=O)N[C@H](C(=O)N[C@]1(C)CCCCCCC=CCCC[C@@](C)(C(=O)NCC(=O)N[C@@H](CC(C)C)C(=O)N[C@@H](CC(=O)O)C(=O)N[C@@H](CCCNC(=N)N)C(=O)N[C@H](C(=O)N[C@@H](CCCCN)C(=O)N[C@@H](CCC(=O)O)C(=O)N[C@@H](CC(C)C)C(=O)N2CCC[C@H]2C(=O)N[C@@H](CCC(=O)O)C(=O)N[C@@H](CC(C)C)C(=O)N[C@@H](Cc2c[nH]c3ccccc23)C(=O)N[C@@H](CC(C)C)C(N)=O)[C@@H](C)CC)NC(=O)[C@H](CCC(=O)O)NC(=O)[C@H]([C@@H](C)CC)NC(=O)[C@H](C(C)C)NC(=O)[C@H](CC(C)C)NC(=O)[C@H](CO)NC(=O)[C@H](CCSC)NC1=O)C(C)C` [SP-84] (Ac-FIDEEV[R8]MSLVIE[S5]GLDRIKELPELWL-NH2; staple 7-14), in the assay with HRE-bla ME-180 cells, the “18 h Avg % max inhibition at top conc (HIF Rptr-24 hrs normoxia) (μM)” value (shortened to “18 h Avg % max inhibition at top conc”) is on record as “+ (<10: +)” and the EC50 is above 30 µM.

In the case of `CCCC[C@H](NC(=O)[C@H](CC(C)C)NC(=O)[C@@H](NC(=O)[C@H](CCC(=O)O)NC(=O)[C@H](CCC(=O)O)NC(=O)[C@H](CC(=O)O)NC(=O)[C@@H](NC(=O)[C@H](Cc1ccccc1)NC(=O)[C@H](CC(=O)O)NC(C)=O)[C@@H](C)CC)C(C)C)C(=O)N[C@@]1(C)CCCC=CCCC[C@@](C)(C(=O)N[C@@H](CCCC)C(=O)N[C@@H](C)C(=O)N[C@@H](CC(C)C)C(=O)N[C@@H](CC(=O)O)C(=O)N[C@@H](CCCNC(=N)N)C(=O)N[C@H](C(N)=O)[C@@H](C)CC)NC(=O)[C@H]([C@@H](C)CC)NC(=O)[C@H](C(C)C)NC(=O)[C@H](CC(C)C)NC1=O` [SP-29] (Ac-DFIDEEVL[Nle][S5]LVI[S5][Nle]ALDRI-NH2; staple 10-14), in the assay on HRE-bla ME-180 cells, the “18 h Avg % max inhibition at top conc” value is recorded as “++ (≤10 but <25: ++)” and the EC50 was above 30 µM.

On to `CCCC[C@H](NC(=O)[C@H](CC(C)C)NC(=O)[C@@H](NC(=O)[C@H](CCC(=O)O)NC(=O)[C@H](CCC(=O)O)NC(=O)[C@H](CC(=O)O)NC(=O)[C@@H](NC(=O)[C@H](Cc1ccccc1)NC(C)=O)[C@@H](C)CC)C(C)C)C(=O)N[C@@]1(C)CCCC=CCCC[C@@](C)(C(=O)N[C@@H](CCCC)C(=O)N[C@@H](C)C(=O)N[C@@H](CC(C)C)C(=O)N[C@@H](CC(=O)O)C(=O)N[C@@H](CCCNC(=N)N)C(=O)N[C@H](C(N)=O)[C@@H](C)CC)NC(=O)[C@H](C)NC(=O)[C@H](C(C)C)NC(=O)[C@H](CC(C)C)NC1=O` [SP-19] (Ac-FIDEEVL[Nle][S5]LVA[S5][Nle]ALDRI-NH2; staple 9-13), for which, in the assay with HRE-bla ME-180 cells, the “18 h Avg % max inhibition at top conc” value is on record as “+++ (≤25 but <50: +++)” and the concentration giving a half-maximal response (EC50) is 5 to 15 µM.

Regarding `CCCC[C@H](NC(=O)[C@H](CC(C)C)NC(=O)[C@@H](NC(=O)[C@H](CCC(=O)O)NC(=O)[C@H](CCC(=O)O)NC(=O)[C@H](CC(=O)O)NC(=O)[C@@H](NC(=O)[C@H](Cc1ccccc1)NC(C)=O)[C@@H](C)CC)C(C)C)C(=O)N[C@@]1(C)CCCC=CCCC[C@@](C)(C(=O)N[C@@H](CCCC)C(=O)N[C@@H](C)C(=O)N[C@@H](CC(C)C)C(=O)N[C@@H](CC(=O)O)C(=O)N[C@@H](CCCNC(=N)N)C(=O)N[C@H](C(N)=O)[C@@H](C)CC)NC(=O)[C@H]([C@@H](C)CC)NC(=O)[C@H](CCC(=O)O)NC(=O)[C@H](CC(C)C)NC1=O` [SP-36] (Ac-FIDEEVL[Nle][S5]LEI[S5][Nle]ALDRI-NH2; staple 9-13), in the assay with HRE-bla ME-180 cells, the “18 h Avg % max inhibition at top conc” value was “+ (<10: +)” and the EC50 was above 30 µM.

On to `CCCC[C@H](NC(=O)[C@H](CC(C)C)NC(=O)[C@@H](NC(=O)[C@H](CCC(=O)O)NC(=O)[C@H](CCC(=O)O)NC(=O)[C@H](CC(=O)O)NC(=O)[C@@H](NC(=O)[C@H](Cc1ccccc1)NC(C)=O)[C@@H](C)CC)C(C)C)C(=O)N[C@@]1(C)CCCC=CCCC[C@@](C)(C(=O)N[C@@H](CCCC)C(=O)N[C@@H](C)C(=O)N[C@@H](C)C(=O)N[C@@H](CC(=O)O)C(=O)N[C@@H](CCCNC(=N)N)C(=O)N[C@H](C(N)=O)[C@@H](C)CC)NC(=O)[C@H]([C@@H](C)CC)NC(=O)[C@H](C(C)C)NC(=O)[C@H](CC(C)C)NC1=O` [SP-22] (Ac-FIDEEVL[Nle][S5]LVI[S5][Nle]AADRI-NH2; staple 9-13), for which, in the assay with HRE-bla ME-180 cells, the “18 h Avg % max inhibition at top conc” value was “++++ (≥50: ++++)” and the EC50 was 5 to 15 µM.

As for `CCCC[C@H](NC(=O)[C@H](CC(C)C)NC(=O)[C@H](CN)NC(=O)[C@H](CCC(=O)O)NC(=O)[C@H](CCC(=O)O)NC(=O)[C@H](CC(=O)O)NC(=O)[C@@H](NC(=O)[C@H](Cc1ccccc1)NC(C)=O)[C@@H](C)CC)C(=O)N[C@@]1(C)CCCC=CCCC[C@@](C)(C(=O)N[C@@H](CCCC)C(=O)N[C@@H](C)C(=O)N[C@@H](CC(C)C)C(=O)N[C@@H](CC(=O)O)C(=O)N[C@@H](CCCNC(=N)N)C(=O)N[C@H](C(N)=O)[C@@H](C)CC)NC(=O)[C@H]([C@@H](C)CC)NC(=O)[C@H](C(C)C)NC(=O)[C@H](CC(C)C)NC1=O` [SP-64] (Ac-FIDEE[Dap]L[Nle][S5]LVI[S5][Nle]ALDRI-NH2; staple 9-13), in the assay on HRE-bla ME-180 cells, the “18 h Avg % max inhibition at top conc” value is listed as “+ (<10: +)” and the EC50 was above 30 µM.

On to `CCCC[C@H](NC(=O)[C@H](CC(C)C)NC(=O)[C@@H](NC(=O)[C@H](CCC(=O)O)NC(=O)[C@H](CCC(=O)O)NC(=O)[C@H](CC(=O)O)NC(=O)[C@@H](NC(=O)[C@H](Cc1ccccc1)NC(C)=O)[C@@H](C)CC)C(C)C)C(=O)N[C@@]1(C)CCCC=CCCC[C@@](C)(C(=O)N[C@@H](CCCC)C(=O)N[C@@H](C)C(=O)N[C@@H](CC(C)C)C(=O)N[C@@H](CC(=O)O)C(=O)N[C@@H](CCCNC(=N)N)C(=O)N[C@@H](CO)C(N)=O)NC(=O)[C@H]([C@@H](C)CC)NC(=O)[C@H](C(C)C)NC(=O)[C@H](CC(C)C)NC1=O` [SP-59] (Ac-FIDEEVL[Nle][S5]LVI[S5][Nle]ALDRS-NH2; staple 9-13), for which, in the assay with HRE-bla ME-180 cells, the “18 h Avg % max inhibition at top conc” value was “+++ (≤25 but <50: +++)” and the EC50 fell in the range of 15 to 30 µM.

As for `CC[C@H](C)[C@H](NC(=O)[C@H](CCCNC(=N)N)NC(=O)[C@H](CC(=O)O)NC(=O)[C@H](CC(C)C)NC(=O)CNC(=O)[C@H](CCSC)NC(=O)[C@H](CCC(=O)O)NC(=O)[C@@H](NC(=O)[C@@H](NC(=O)[C@H](CC(C)C)NC(=O)[C@H](CO)NC(=O)[C@]1(C)CCCC=CCCC[C@](C)(NC(=O)[C@H](CC(=O)O)NC(=O)[C@@H](NC(=O)[C@H](Cc2ccccc2)NC(C)=O)[C@@H](C)CC)C(=O)N[C@@H](CCC(=O)O)C(=O)N[C@@H](C(C)C)C(=O)N[C@@H](CC(C)C)C(=O)N1)C(C)C)[C@@H](C)CC)C(=O)N[C@@H](CCCCN)C(=O)N[C@@H](CCC(=O)O)C(=O)N[C@@H](CC(C)C)C(=O)N1CCC[C@H]1C(=O)N[C@@H](CCC(=O)O)C(=O)N[C@@H](CC(C)C)C(=O)N[C@@H](Cc1c[nH]c2ccccc12)C(=O)N[C@@H](CC(C)C)C(N)=O` [SP-76] (Ac-FID[S5]EVL[S5]SLVIEMGLDRIKELPELWL-NH2; staple 4-8), in the assay with HRE-bla ME-180 cells, the “18 h Avg % max inhibition at top conc” value is “+ (<10: +)” and the EC50 is above 30 µM.
